# Tests used:
# [1] = biological target: T1, superoxide dismutase (SOD) (Homo sapiens, UniProt P00441); type: biochemical; settings: at 100 µM
# xanthine oxidase (XOD) [2] = biological target: T2, xanthine oxidase (XOD) (Homo sapiens, UniProt P47989); type: biochemical; settings: at 100 µM
# xanthine oxidase (XOD) [3] = biological target: T2, xanthine oxidase (XOD); assay: biochemical; settings: read-out: Anti XOD IC50
# Protocol: Anti-xanthine oxidase activity was assayed spectrophotometrically under aerobic conditions. First, 50 µL (50 µg/mL) of samples were added to 60 µL of phosphate buffer (pH 7.5) and 30 µL of xanthine oxidase enzyme solution (0.01 units/mL in phosphate buffer; pH 7.5). After pre-incubation at 25 °C for 15 min, the reaction was initiated by the addition of 60 µL of xanthine substrate solution (prepared in the same buffer). The assay mixture was incubated at 25 °C for 5 min. […] The assay was performed in triplicate. […] Tests were carried out in triplicate.
# [4] = ABTS radical cation scavenging assay
# Protocol: ABTS (2,2′-azinobis-3-ethylbenzothiazoline-6-sulfonate) assay
# The radical scavenging capacity of antioxidants for the ABTS radical cation was evaluated following this method: ABTS was prepared by adding 7 mM solution of ABTS at pH 7.4 (5 mM NaH2PO4, 5 mM Na2HPO4, and 154 mM NaCl) with 2.5 mM potassium persulfate. The mixture was stored at room temperature for 16 h in the dark before use and prepared […]. Once diluted with persulfate buffer, the absorbance of the mixture yielded an absorbance value of 0.70 ± 0.05 units at 734 nm. Then, 20 µL of each tested sample was mixed with fresh ABTS solution (180 µL), then the absorbance was measured 6 min after the initial mixing. Ascorbic acid was used as a standard. The capacity of free radical scavenging was expressed as a percentage of the inhibition values. The percentage of inhibition is calculated using the same expression employed in the DPPH assay.
# SKOV-3 cells = assay: Cytotoxic activity, MTT assay, SKOV-3; type: cell-based, human; settings: Homo sapiens, SK-OV-3, 72 h, read-out: IC50 SKOV-3, MTT, 72 h
# α-amylase = biological target: T3, α-amylase (Homo sapiens, UniProt P04746); assay: Anti-α-amylase activity (starch/DNS)
# T3 sequence (P04746 16-511): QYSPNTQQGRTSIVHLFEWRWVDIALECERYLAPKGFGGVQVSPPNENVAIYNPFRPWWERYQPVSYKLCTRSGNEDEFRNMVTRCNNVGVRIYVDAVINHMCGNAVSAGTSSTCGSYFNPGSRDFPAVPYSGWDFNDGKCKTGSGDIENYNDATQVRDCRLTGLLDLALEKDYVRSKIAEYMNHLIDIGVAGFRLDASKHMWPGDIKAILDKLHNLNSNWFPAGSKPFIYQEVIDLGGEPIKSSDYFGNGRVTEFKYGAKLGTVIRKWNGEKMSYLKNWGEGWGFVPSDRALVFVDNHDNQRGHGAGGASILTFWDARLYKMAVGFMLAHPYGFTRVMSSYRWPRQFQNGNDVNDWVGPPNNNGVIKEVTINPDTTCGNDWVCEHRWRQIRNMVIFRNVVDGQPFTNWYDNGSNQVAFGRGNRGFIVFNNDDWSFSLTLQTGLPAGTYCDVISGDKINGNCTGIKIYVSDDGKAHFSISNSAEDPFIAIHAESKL
# Protocol: The α-amylase inhibitory activity (%) value was defined as the percentage decrease in the maltose production rate over the control. […] After 15 min, this mixture was removed from the water bath and diluted with 900 µL of distilled water. The anti-α-amylase activity was determined by measuring the absorbance at 540 nm. Blank incubations were determined as the absorbance produced by samples where the enzyme was replaced with a buffer solution. […] The IC50 values were calculated from the mean values of the percentage of α--amylase inhibition data, determined in triplicate.
# [5] = biological target: T1, superoxide dismutase (SOD); assay: biochemical; settings: read-out: Anti SOD IC50
# Protocol: Pyrogallol auto-oxidation due to oxygen in the air can be inhibited by an enzyme that is naturally present in the body: superoxide dismutase (SOD). Furthermore, variations in the pyrogallol auto-oxidation rate in the presence of SOD were evaluated. Tests were carried out in triplicate. The objective was to find an inhibitor of the auto-oxidation of pyrogallol in the presence of a SOD enzyme solution. Samples were tested at a concentration of 50 µg/mL, followed by incubation for 4 min at 25 °C. […] The self-oxidation of pyrogallol was evaluated in the absence of the enzyme. For this, 30 µL of pyrogallol was added to 120 µL of tris buffer (in place of the SOD) (pH 8.5), then followed by the same steps of incubating a positive control (without the molecule); this was performed in the presence of 5% of DMSO to evaluate the percentage of SOD inhibition activity on the auto-oxidation of pyrogallol.
# MCF7 cells = assay: Cytotoxic activity, MTT assay, MCF7; type: cell-based, human; settings: Homo sapiens, MCF7, 72 h
# Protocol: Optical density was measured at 540 nm. All tests were established in triplicate.
# HCT116 cells = assay: Cytotoxic activity, MTT assay, HCT116; type: cell-based, human; settings: Homo sapiens, HCT-116, 72 h, read-out: IC50 HCT116, MTT, 72 h
# Protocol: (§1) The cancer cell lines used in this study were HCT116 (colorectal carcinoma), IGROV1 (ovarian cancer), OVCAR3 (ovarian cancer), and MCF7 (mammary gland/breast cancer). […] Cell lines were maintained in culture and were incubated at 37 °C in an incubator with 5% CO2 in a humidified atmosphere. All tests were established at 80% of confluence, and viability was estimated with a trypan blue exclusion assay.
# (§2) The cytotoxic activities of molecules against cancer cell lines were evaluated using an MTT assay. The MTT colorimetric assay was performed using 96-well plates. Cells were seeded in a 96-well plate, at a concentration of 10 × 10^3 cells/well for HCT116 and 12 × 10^3 cells/well for MCF7, IGROV1, and OVAR. Adherent cells were dispatched and incubated at 37 °C overnight in a 5% CO2-enriched atmosphere. […] After that, the medium was removed, and cells were treated with 50 µL of 3-(4,5-dimethylthazolk-2-yl)-2,5-diphenyl tetrazolium bromide (MTT) solution (3 mg/mL in PBS) at 37 °C for 20 to 40 min. To dissolve the […], we added 80 µL of 100% DMSO. Optical density was measured at 540 nm. All tests were established in triplicate. […]
# OVCAR-3 cells = assay: Cytotoxic activity, MTT assay, OVCAR-3; type: cell-based; settings: Homo sapiens, OVCAR-3, 72 h, read-out: IC50 OVCAR-3
# Protocol: as §1, §2
# [6] = biological target: T4, acetylcholinesterase (AChE) (Homo sapiens, UniProt P22303); assay: biochemical
# T4 sequence (P22303 32-614, species assumed): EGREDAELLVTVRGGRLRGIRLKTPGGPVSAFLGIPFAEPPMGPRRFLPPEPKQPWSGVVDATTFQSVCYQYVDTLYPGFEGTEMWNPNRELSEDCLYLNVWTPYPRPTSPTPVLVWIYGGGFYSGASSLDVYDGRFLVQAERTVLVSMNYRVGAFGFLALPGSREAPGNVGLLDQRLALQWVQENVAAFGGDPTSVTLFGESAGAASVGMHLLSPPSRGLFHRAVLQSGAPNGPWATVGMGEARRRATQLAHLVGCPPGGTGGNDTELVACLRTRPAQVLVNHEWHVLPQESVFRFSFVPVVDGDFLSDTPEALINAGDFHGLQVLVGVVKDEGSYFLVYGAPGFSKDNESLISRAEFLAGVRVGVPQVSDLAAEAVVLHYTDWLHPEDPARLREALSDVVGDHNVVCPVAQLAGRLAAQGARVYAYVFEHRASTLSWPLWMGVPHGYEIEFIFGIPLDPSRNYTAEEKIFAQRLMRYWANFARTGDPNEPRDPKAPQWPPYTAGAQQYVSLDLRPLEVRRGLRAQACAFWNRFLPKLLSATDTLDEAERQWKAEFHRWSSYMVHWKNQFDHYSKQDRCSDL
# Protocol: The enzymatic activity was assessed via a modified colorimetric Ellman′s method. First, 50 µL of Tris-HCl buffer (pH 8), 25µL of a buffer solution of the sample (50 µg/mL), and 25 µL of an acetylcholinesterase (AChE) enzyme solution containing 2.8 U/mL were mixed. A reaction was then initiated via the addition of 125 µL of 3 mM […]. After incubation for 15 min at 25 °C, 25 µL of a solution of iodide acetylthiocholine15 mM was added to a 96-well microplate. […] Inhibition (%) was calculated in the following way: Inhibition (%) = [(A control − A sample)/A control] × 100, where (A sample) is the absorbance of the molecule containing the reaction and (A control) is the absorbance of the reaction control. Tests were carried out in triplicate.
# [7] = DPPH radical scavenging assay
# Protocol: DPPH• (1-1-diphenyl 2-picryl hydrazyl) assay
# This method is based on the spectrophotometric assay using the stable radical, DPPH•, as a reagent. First, 20 µL of each sample (4 mg/mL) was mixed with 180 µL of 0.1 mM DPPH• in methanol, in plates, after an incubation of 25 min in the dark. Absorbance was measured at 517 nm. Ascorbic acid was used as the reference compound. The radical-scavenging activities of molecules, expressed as a percentage inhibition of DPPH•, were calculated according to the following formula: Inhibition (%) = [(A control − A sample)/A control] × 100 where A is the absorbance determined at 517 nm. The absorbance of the solvent and DPPH• radical without the molecule was measured as the control.
# [8] = biological target: T4, acetylcholinesterase (AChE); type: biochemical; settings: at 100 µM
# T2 sequence (P47989 whole entry, species assumed): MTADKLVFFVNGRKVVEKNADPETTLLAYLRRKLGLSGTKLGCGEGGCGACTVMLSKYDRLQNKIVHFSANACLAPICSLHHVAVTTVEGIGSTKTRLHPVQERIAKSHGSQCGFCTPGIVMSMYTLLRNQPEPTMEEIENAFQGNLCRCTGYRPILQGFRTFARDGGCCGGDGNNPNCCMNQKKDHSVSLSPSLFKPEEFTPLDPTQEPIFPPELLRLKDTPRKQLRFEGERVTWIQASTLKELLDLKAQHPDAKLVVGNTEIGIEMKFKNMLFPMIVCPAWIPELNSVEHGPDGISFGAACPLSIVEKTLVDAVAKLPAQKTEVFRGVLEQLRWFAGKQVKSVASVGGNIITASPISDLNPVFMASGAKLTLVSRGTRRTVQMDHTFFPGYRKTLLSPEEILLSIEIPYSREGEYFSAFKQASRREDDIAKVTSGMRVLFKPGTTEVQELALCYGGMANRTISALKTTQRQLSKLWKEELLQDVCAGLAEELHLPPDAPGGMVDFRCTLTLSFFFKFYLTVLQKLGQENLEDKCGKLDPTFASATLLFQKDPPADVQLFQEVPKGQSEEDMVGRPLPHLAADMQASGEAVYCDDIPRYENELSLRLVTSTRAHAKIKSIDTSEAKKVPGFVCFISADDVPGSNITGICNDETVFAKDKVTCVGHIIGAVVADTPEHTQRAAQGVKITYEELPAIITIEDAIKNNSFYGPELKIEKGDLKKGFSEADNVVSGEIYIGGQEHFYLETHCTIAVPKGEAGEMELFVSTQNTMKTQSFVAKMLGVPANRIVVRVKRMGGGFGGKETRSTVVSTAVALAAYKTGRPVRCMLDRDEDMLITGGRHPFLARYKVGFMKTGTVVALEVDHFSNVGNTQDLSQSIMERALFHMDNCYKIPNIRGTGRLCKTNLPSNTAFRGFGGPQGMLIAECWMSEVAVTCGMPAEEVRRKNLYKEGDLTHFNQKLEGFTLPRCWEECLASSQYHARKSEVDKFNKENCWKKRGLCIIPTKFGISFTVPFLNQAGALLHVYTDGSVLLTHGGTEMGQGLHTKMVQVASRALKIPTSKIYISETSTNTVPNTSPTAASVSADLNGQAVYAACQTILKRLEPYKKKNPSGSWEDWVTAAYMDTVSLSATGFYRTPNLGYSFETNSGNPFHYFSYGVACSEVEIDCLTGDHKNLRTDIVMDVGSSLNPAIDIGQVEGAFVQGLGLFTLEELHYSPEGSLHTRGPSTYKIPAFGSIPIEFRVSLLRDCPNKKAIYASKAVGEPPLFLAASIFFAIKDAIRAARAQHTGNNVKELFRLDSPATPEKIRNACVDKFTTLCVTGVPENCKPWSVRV
# T1 sequence (P00441 whole entry): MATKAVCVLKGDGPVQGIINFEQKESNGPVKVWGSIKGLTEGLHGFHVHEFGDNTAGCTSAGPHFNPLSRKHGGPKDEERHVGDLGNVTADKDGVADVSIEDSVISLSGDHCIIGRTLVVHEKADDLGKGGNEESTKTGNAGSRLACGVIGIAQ
compound,measurement,setting,value
"COc1ccc(-c2cc(=O)c3c(O)cc(O[C@@H]4O[C@H](CO[C@@H]5O[C@@H](C)[C@H](O)[C@@H](O)[C@H]5O)[C@@H](O)[C@H](O)[C@H]4O)cc3o2)cc1O [Molecule M19, 3′, 5,7-trihydroxy-4′-methoxyflavone 7-rutinoside]",Anti SOD %,[1],57.8 ± 2.4%
same,Anti XOD %,xanthine oxidase (XOD) [2],45.3 ± 3.2%
same,IC50,xanthine oxidase (XOD) [3],> 100 µM
same,IC50,[4],> 50 µM
same,IC50,SKOV-3 cells,40.1 ± 0.9 µM
same,IC50,α-amylase,3.7 ± 0.3 µM
same,Anti α-Amylase %,α-amylase; at 100 µM,60.6 ± 4.8%
same,IC50,[5],> 50 µM
same,IC50,MCF7 cells,> 50 µM
same,IC50,HCT116 cells,> 50 µM
same,IC50,OVCAR-3 cells,> 50 µM
same,IC50,[6],> 100 µM
same,IC50,[7],> 100 µM
same,Anti ACHE %,[8],37.7 ± 4.6%
"CC1OC(Oc2c(-c3cc(O)c(O)c(O)c3)oc3cc(O)cc(O)c3c2=O)C(O)C(O)C1O (stereo not shown) [Molecule M20, myricitrin dihydrate]",Anti SOD %,[1],42.4 ± 1.1%
same,Anti XOD %,xanthine oxidase (XOD) [2],30.9 ± 2.5%
same,IC50,xanthine oxidase (XOD) [3],> 100 µM
same,IC50,[4],> 100 µM
same,ABTS Assay %,[4]; at 100 µM,20.3 ± 3.2%
same,IC50,SKOV-3 cells,> 50 µM
same,IC50,α-amylase,> 100 µM
same,IC50,[5],> 100 µM
same,IC50,MCF7 cells,> 50 µM
same,IC50,HCT116 cells,> 50 µM
same,IC50,OVCAR-3 cells,> 50 µM
same,IC50,[6],> 50 µM
same,IC50,[7],> 100 µM
same,Anti ACHE %,[8],51.8 ± 3.5%

# Reference: article PMC10052652 (Molecules, 2023)
